Source: PubChem BioAssay AID248 (DTP/NCI, 2004)
Several values for one entry are separate records, joined by “and”; a condition that tells them apart may be missing. Identical values can stand only once. Toxic doses and inconclusive results are not listed. No stated cut-off is given here; in the data, active means T/C of 150% or more; inactive means T/C below 125%.

System: L1210 leukemia ip in BDF1 mice, survival T/C
Assay: NCI In Vivo Anticancer Drug Screen. Data for tumor model L1210 Leukemia (intraperitoneal) in B6D2F1 (BDF1) mice
Conditions: endpoint: mean survival time, higher = longer survival
Method in brief: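 Each compound was tested against a transplantable tumor grown in mice. The endpoint was survival, with treated animals benchmarked against vehicle controls as a simple ratio.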

[1] = dose: 25.0 mg/kg/injection, schedule: Q01DX009 (ip), vehicle: Klucel (hydroxypropylcellulose) (HPC)
[2] = dose: 50.0 mg/kg/injection, schedule: Q01DX009 (ip), vehicle: Klucel (hydroxypropylcellulose) (HPC)
[3] = dose: 100.0 mg/kg/injection, schedule: Q04DX003 (ip), vehicle: Klucel (hydroxypropylcellulose) (HPC)
[4] = dose: 200.0 mg/kg/injection, schedule: Q04DX003 (ip), vehicle: Klucel (hydroxypropylcellulose) (HPC)
[5] = dose: 400.0 mg/kg/injection, schedule: Q04DX003 (ip), vehicle: Klucel (hydroxypropylcellulose) (HPC)
[6] = dose: 25.0 mg/kg/injection, schedule: Q01DX009 (ip), vehicle: saline
[7] = dose: 50.0 mg/kg/injection, schedule: Q01DX009 (ip), vehicle: saline
[8] = dose: 100.0 mg/kg/injection, schedule: Q04DX003 (ip), vehicle: saline
[9] = dose: 200.0 mg/kg/injection, schedule: Q04DX003 (ip), vehicle: saline
[10] = dose: 400.0 mg/kg/injection, schedule: Q04DX003 (ip), vehicle: saline
[11] = dose: 50.0 mg/kg/injection, schedule: Q01DX009 (ip), vehicle: saline with Tween-80
[12] = dose: 100.0 mg/kg/injection, schedule: Q01DX009 (ip), vehicle: saline with Tween-80
[13] = dose: 200.0 mg/kg/injection, schedule: Q01DX009 (ip), vehicle: saline with Tween-80
[14] = dose: 100.0 mg/kg/injection, schedule: Q04DX003 (ip), vehicle: saline with Tween-80
[15] = dose: 200.0 mg/kg/injection, schedule: Q04DX003 (ip), vehicle: saline with Tween-80

Measured: T/C

C=CCN1CCC(C(=O)CC)(c2ccccc2)CC1
inactive: dose: 12.5 mg/kg/injection, schedule: Q01DX009 (ip), vehicle: Klucel (hydroxypropylcellulose) (HPC) 100 % of control | [1] 98 % of control | [2] 106 % of control

CN(C)C1C2(C)CCC(C2)C1(C)C (centres undefined)
inactive: dose: 5.0 mg/kg/injection, schedule: Q01DX001 (ip), vehicle: carboxymethylcellulose (CMC) 101 % of control | dose: 10.0 mg/kg/injection, schedule: Q01DX001 (ip), vehicle: carboxymethylcellulose (CMC) 98 % of control | dose: 20.0 mg/kg/injection, schedule: Q01DX001 (ip), vehicle: carboxymethylcellulose (CMC) 98 % of control | dose: 40.0 mg/kg/injection, schedule: Q01DX001 (ip), vehicle: carboxymethylcellulose (CMC) 95 % of control

ClC(Cl)(Cl)c1cccc(C(Cl)(Cl)Cl)n1
inactive: dose: 100.0 mg/kg/injection, schedule: Q04DX003 (sc), vehicle: olive oil, sesame oil, peanut oil 97 % of control and 103 % of control | dose: 200.0 mg/kg/injection, schedule: Q04DX003 (sc), vehicle: olive oil, sesame oil, peanut oil 97 % of control and 103 % of control | dose: 400.0 mg/kg/injection, schedule: Q04DX003 (sc), vehicle: olive oil, sesame oil, peanut oil 100 % of control and 101 % of control

CCOC(CCl)[N+](C)(C)C (centres undefined)
inactive: dose: 100.0 mg/kg/injection, schedule: Q04DX002 (ip), vehicle: saline 91 % of control

O=C(CN1C(=O)c2ccccc2C1=O)NCC(=O)Nc1ccccc1
inactive: dose: 50.0 mg/kg/injection, schedule: Q01DX001 (ip), vehicle: saline 93 % of control | dose: 100.0 mg/kg/injection, schedule: Q01DX001 (ip), vehicle: saline 98 % of control | dose: 200.0 mg/kg/injection, schedule: Q01DX001 (ip), vehicle: saline 104 % of control | dose: 400.0 mg/kg/injection, schedule: Q01DX001 (ip), vehicle: saline 93 % of control

CCOC=Nc1cc[n+]([O-])nc1C
inactive: dose: 43.75 mg/kg/injection, schedule: Q04DX002 (ip), vehicle: saline 104 % of control | dose: 87.5 mg/kg/injection, schedule: Q04DX002 (ip), vehicle: saline 104 % of control | dose: 175.0 mg/kg/injection, schedule: Q04DX002 (ip), vehicle: saline 104 % of control

O=c1cc(Br)c(=O)c2cc(Br)cc(Br)c2[nH]1
inactive: [1] 95 % of control | [2] 98 % of control | dose: 100.0 mg/kg/injection, schedule: Q01DX009 (ip), vehicle: Klucel (hydroxypropylcellulose) (HPC) 90 % of control | [3] 98 % of control | dose: 200.0 mg/kg/injection, schedule: Q01DX009 (ip), vehicle: Klucel (hydroxypropylcellulose) (HPC) 87 % of control | [4] 106 % of control | dose: 400.0 mg/kg/injection, schedule: Q01DX009 (ip), vehicle: Klucel (hydroxypropylcellulose) (HPC) 89 % of control | [5] 88 % of control

CC(N)Cc1ccc(O)cc1 (centres undefined)
inactive: [6] 108 % of control | dose: 25.0 mg/kg/injection, schedule: Q04DX003 (ip), vehicle: saline 100 % of control | [7] 103 % of control | dose: 50.0 mg/kg/injection, schedule: Q04DX003 (ip), vehicle: saline 94 % of control | dose: 100.0 mg/kg/injection, schedule: Q01DX009 (ip), vehicle: saline 101 % of control | [8] 96 % of control | dose: 200.0 mg/kg/injection, schedule: Q01DX009 (ip), vehicle: saline 93 % of control | [9] 100 % of control | [10] 94 % of control

Clc1nc2nnnn2c2ccccc12
inactive: dose: 20.0 mg/kg/injection, schedule: Q04DX003 (ip), vehicle: saline 101 % of control | dose: 40.0 mg/kg/injection, schedule: Q04DX003 (ip), vehicle: saline 101 % of control | dose: 80.0 mg/kg/injection, schedule: Q04DX003 (ip), vehicle: saline 104 % of control

ClCC#Cc1ccccc1
inactive: dose: 12.0 mg/kg/injection, schedule: Q01DX009 (ip), vehicle: saline 100 % of control | [6] 100 % of control | [7] 101 % of control | [8] 103 % of control | [9] 92 % of control | [10] 91 % of control

CCOC(=O)c1cccc2nc3n(c12)CCC3
inactive: [11] 105 % of control | dose: 100.0 mg/kg/injection, schedule: Q01DX001 (ip), vehicle: saline with Tween-80 101 % of control | [12] 95 % of control | dose: 200.0 mg/kg/injection, schedule: Q01DX001 (ip), vehicle: saline with Tween-80 103 % of control | [13] 94 % of control

COc1cc(OC)c(/C=C/c2cnc3ccccc3n2)c(OC)c1
inactive: dose: 3.13 mg/kg/injection, schedule: Q04DX002 (ip), vehicle: saline with Tween-80 104 % of control | dose: 6.25 mg/kg/injection, schedule: Q04DX002 (ip), vehicle: saline with Tween-80 95 % of control | dose: 12.5 mg/kg/injection, schedule: Q04DX002 (ip), vehicle: saline with Tween-80 88 % of control | dose: 50.0 mg/kg/injection, schedule: Q04DX002 (ip), vehicle: saline with Tween-80 90 % of control

Cc1ccn(-c2ccccc2)n1
inactive: dose: 100.0 mg/kg/injection, schedule: Q01DX009 (ip), vehicle: other 100 % of control | dose: 100.0 mg/kg/injection, schedule: Q04DX003 (ip), vehicle: other 101 % of control | dose: 200.0 mg/kg/injection, schedule: Q01DX009 (ip), vehicle: other 90 % of control | dose: 200.0 mg/kg/injection, schedule: Q04DX003 (ip), vehicle: other 104 % of control | dose: 400.0 mg/kg/injection, schedule: Q01DX009 (ip), vehicle: other 107 % of control | dose: 400.0 mg/kg/injection, schedule: Q04DX003 (ip), vehicle: other 104 % of control

CCC(O)C(C)(O)C(=O)O (centres undefined)
inactive: [11] 96 % of control | [12] 96 % of control | [13] 92 % of control

O=C(c1ccccc1)C1OC(=O)C1c1ccccc1 (centres undefined)
inactive: dose: 100.0 mg/kg/injection, schedule: Q01DX001 (ip), vehicle: Klucel (hydroxypropylcellulose) (HPC) 97 % of control | [3] 101 % of control | dose: 200.0 mg/kg/injection, schedule: Q01DX001 (ip), vehicle: Klucel (hydroxypropylcellulose) (HPC) 92 % of control | [4] 101 % of control | dose: 400.0 mg/kg/injection, schedule: Q01DX001 (ip), vehicle: Klucel (hydroxypropylcellulose) (HPC) 103 % of control | [5] 97 % of control

CC(=O)Nc1ccc(NC(=O)Nc2ccc(C)cc2[N+](=O)[O-])cc1
inactive: [3] 92 % of control | [4] 86 % of control | [5] 94 % of control

C=CCNC(=S)C(C(=O)OC)C(=O)OC
inactive: [8] 103 % of control | [9] 100 % of control | [10] 100 % of control

CC(=O)NNc1nc(C)cs1
inactive: [14] 97 % of control

C[N+](C)(C)CCOC(=O)c1ccccc1CCl
inactive: dose: 100.0 mg/kg/injection, schedule: Q04DX002 (ip), vehicle: saline with Tween-80 98 % of control | dose: 200.0 mg/kg/injection, schedule: Q04DX002 (ip), vehicle: saline with Tween-80 102 % of control

CN(C)/C=N/NC(=O)C(O)c1ccccc1 (centres undefined)
inactive: [14] 116 % of control | [15] 103 % of control | dose: 400.0 mg/kg/injection, schedule: Q04DX003 (ip), vehicle: saline with Tween-80 111 % of control

NC(=O)NC(=O)/C=C/C(=O)O
inactive: [11] 100 % of control | [12] 94 % of control | [14] 92 % of control | [15] 90 % of control
